We go through 4 molecules from article PMC5889666 (Proceedings of the National Academy of Sciences of the …, 2018).

For orientation: Km means the substrate concentration at which the rate is half of its maximum.

The target in one series is T1, FadD (Escherichia coli, UniProt P69451).
T1 sequence (P69451 1-561): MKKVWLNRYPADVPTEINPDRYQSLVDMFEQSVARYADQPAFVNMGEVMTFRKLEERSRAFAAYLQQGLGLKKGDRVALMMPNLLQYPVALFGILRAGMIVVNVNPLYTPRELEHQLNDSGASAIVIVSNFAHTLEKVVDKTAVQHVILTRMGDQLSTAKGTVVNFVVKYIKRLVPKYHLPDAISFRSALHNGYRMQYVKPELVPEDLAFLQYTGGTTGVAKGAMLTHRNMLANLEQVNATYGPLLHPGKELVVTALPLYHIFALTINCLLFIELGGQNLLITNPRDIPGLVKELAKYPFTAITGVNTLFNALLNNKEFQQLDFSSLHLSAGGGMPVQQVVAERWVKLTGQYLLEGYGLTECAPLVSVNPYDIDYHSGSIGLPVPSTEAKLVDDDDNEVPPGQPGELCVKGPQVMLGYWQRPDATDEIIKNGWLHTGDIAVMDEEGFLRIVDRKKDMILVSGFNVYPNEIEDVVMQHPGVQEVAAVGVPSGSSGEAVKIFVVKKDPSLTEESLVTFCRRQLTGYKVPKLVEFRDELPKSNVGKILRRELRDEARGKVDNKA
The experiment in a line: in vitro acyl-CoA synthesis, product by LC-MS. In kind it is biochemical.

A further series has as its target T2, PlsB (Escherichia coli, UniProt P0A7A7).
T2 sequence (P0A7A7 2-807): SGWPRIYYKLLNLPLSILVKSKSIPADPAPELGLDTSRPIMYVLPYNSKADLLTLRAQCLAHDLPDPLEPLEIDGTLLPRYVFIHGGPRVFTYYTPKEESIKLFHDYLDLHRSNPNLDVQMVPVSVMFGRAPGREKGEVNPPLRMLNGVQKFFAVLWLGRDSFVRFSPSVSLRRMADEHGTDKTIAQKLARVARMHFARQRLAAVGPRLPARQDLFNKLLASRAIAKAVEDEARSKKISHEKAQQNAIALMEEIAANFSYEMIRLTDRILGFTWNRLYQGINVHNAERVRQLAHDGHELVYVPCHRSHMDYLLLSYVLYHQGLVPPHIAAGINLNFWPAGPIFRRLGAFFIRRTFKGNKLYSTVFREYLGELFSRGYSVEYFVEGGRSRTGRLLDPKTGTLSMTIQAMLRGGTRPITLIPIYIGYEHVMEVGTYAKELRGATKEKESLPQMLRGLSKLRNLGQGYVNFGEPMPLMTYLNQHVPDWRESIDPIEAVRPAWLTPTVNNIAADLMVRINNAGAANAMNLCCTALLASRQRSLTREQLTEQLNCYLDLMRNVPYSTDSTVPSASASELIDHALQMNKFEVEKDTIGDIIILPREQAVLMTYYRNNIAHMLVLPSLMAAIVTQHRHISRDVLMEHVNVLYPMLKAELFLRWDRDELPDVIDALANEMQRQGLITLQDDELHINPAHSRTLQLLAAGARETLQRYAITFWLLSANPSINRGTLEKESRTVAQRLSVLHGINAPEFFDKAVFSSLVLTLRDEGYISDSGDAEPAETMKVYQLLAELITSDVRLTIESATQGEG
The experiment in a line: in vitro lyso-phosphatidic acid synthesis, product by LC-MS. Format: biochemical. As to conditions: co-substrate acyl-CoA made from oleic acid and CoA by FadD.

Substrate in series [1]: O=P(O)(O)OC[C@@H](O)CO
The experiment in a line: purified protein. The conditions noted are these: co-substrate GGPP.

Substrate in series [2]: O=P(O)(O)OC[C@H](O)CO
The experiment in a line: purified protein. The conditions noted are these: co-substrate GGPP.

For the molecule `CC(C)(COP(=O)(O)OP(=O)(O)OC[C@H]1O[C@@H](n2cnc3c(N)ncnc32)[C@H](O)[C@@H]1OP(=O)(O)O)[C@@H](O)C(=O)NCCC(=O)NCCS` [CoA], the “in vitro acyl-CoA synthesis, product by LC-MS” value on FadD (co-substrate oleic acid) is “in vitro condensation of oleic acid and CoA to yield acyl-CoA”. In the case of `O=P(O)(O)OC[C@H](O)CO` [G3P], the “in vitro lyso-phosphatidic acid synthesis, product by LC-MS” value on PlsB was “LPA synthesis was observed only in the presence of G3P”.

On to `CCCCCCCC/C=C\CCCCCCCC(=O)O` [oleic acid], for which the “in vitro acyl-CoA synthesis, product by LC-MS” value at FadD (co-substrate CoA) is “in vitro condensation of oleic acid and CoA to yield acyl-CoA”.

B1: GGGPS (Methanococcus maripaludis S2) (protein)
chain: MQIKIGEIESKLNKIIEEEGAAYFVLIDPDEKNYREIANHVKDYADAIIIGGSIGIINLDEVTKDIKEITGLPIILFPGNVDGVTKEADAVFFMSLMNSKNTYWNMTAPTLGALTIKKYGLETLPMAYLGIEPISKTAVGFVGEVNEIPQKKPEIAGLYSLSASYFGMRWAYLEAGSGAEYPVSNEMVGISKKLSGINIIVGGGIRTPEVAYEKVMSGADVIVTGTLTEKDPQAVVEMKKAIKKAGLDKLKMLSKK
On to B1, for which the figures for the Km in “purified protein [1]” and in the series “purified protein [2]” were 5.8 ± 1.6 µM and 46.7 ± 6 µM, respectively.
